Assay results from ChEMBL document CHEMBL5154672, “Design and synthesis of HDAC inhibitors to enhance the therapeutic effect of diffuse large B-cell lymphoma by improving metabolic stability and pharmacokinetic characteristics” (Eur J Med Chem, 2022).
pIC50: −log10 of the molar value. ≈ marks a conversion by molar mass, not a printed value.

What was measured:
HT-29 = assay: Antiproliferative activity against human HT-29 cells incubated for 72 hrs by luminescence assay; assay type: functional, cell-based; details: HT-29, 72 h
[1] = MRT(0 to infinity) in CB.17 SCID mouse xenografted with human TMD8 cells at 25 mg/kg, po measured upto 24 hrs by LC-MS/MS analysis; assay type: ADME, organism-based; details: in vivo
Histone deacetylase 8 = Histone deacetylase 8 (Homo sapiens, UniProt Q9BY41); assay: Inhibition of HDAC8 (unknown origin) using RHK(Ac)K(Ac)AMC fluorogenic peptide as substrate preincubated for 10 mins followed by substrate addition for 2 hr in presence of ATP by fluoroscence based assay
Sequence of Histone deacetylase 8 (Q9BY41 whole entry): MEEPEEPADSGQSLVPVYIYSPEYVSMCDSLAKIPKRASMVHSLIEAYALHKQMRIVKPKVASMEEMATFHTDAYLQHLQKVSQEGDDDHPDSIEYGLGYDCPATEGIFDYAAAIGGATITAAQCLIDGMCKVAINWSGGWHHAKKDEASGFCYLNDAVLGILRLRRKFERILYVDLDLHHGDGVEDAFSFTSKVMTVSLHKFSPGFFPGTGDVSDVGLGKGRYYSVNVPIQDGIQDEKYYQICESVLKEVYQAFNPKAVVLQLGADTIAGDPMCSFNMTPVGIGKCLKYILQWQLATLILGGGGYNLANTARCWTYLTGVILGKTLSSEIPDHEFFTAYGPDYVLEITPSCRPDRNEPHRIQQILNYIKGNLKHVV

Histone deacetylase 3 = Histone deacetylase 3 (Homo sapiens, UniProt O15379); assay: Inhibition of HDAC3 (unknown origin) using RHKK(Ac)AMC fluorogenic peptide as substrate preincubated for 10 mins followed by substrate addition for 1 hr in presence of ATP by fluoroscence based assay
Sequence of Histone deacetylase 3 (O15379 whole entry): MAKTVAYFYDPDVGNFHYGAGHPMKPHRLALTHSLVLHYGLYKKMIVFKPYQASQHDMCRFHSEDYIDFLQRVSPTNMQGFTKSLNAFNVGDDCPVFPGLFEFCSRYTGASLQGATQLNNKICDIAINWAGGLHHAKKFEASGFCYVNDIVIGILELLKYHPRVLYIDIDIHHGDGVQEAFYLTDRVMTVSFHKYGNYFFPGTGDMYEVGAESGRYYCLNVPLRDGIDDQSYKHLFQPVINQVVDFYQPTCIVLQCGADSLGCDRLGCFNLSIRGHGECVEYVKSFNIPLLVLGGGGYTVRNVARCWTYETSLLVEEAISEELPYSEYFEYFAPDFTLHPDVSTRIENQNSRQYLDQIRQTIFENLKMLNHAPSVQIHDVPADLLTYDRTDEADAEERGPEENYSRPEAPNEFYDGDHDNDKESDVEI

[2] = AUC (0 to infinity) in ICR mouse at 2 mg/kg, iv measured upto 24 hrs by LC-MS/MS analysis; assay type: ADME, organism-based; set-up: time < 24 hrs, dose 2 mg/kg, route iv; details: in vivo
[3] = AUC (0 to t) in CB.17 SCID mouse xenografted with human TMD8 cells at 25 mg/kg, po measured upto 24 hrs by LC-MS/MS analysis; assay type: ADME, organism-based; set-up: dose 25 mg/kg, time < 24 hrs, route po; details: in vivo
COLO-678 = assay: Antiproliferative activity against human COLO-678 cells incubated for 72 hrs by luminescence assay; assay type: functional, cell-based; details: COLO-678, 72 h
HuT78 = assay: Antiproliferative activity against human HuT78 cells incubated for 72 hrs by luminescence assay; assay type: functional, cell-based; details: HuT78, 72 h
[4] = Metabolic stability in human liver microsomes assessed as intrinsic clearance measured for 75 to 130 mins by LC-MS/MS analysis; assay type: ADME, Microsome; details: liver microsomes, time 75-130 min, read-out: CLH
Rec1 = assay: Antiproliferative activity against human REC1 cells incubated for 72 hrs by luminescence assay; assay type: functional, cell-based; details: Rec1, 72 h
TMD8 [5] = assay: Induction of apoptosis in human TMD8 cells assessed as early apoptotic cells at 2 uM incubated for 24 hrs by Annexin V-FITC/PI staining based flow cytometric analysis (reference value: 0.24%); assay type: functional
[6] = Half life in ICR mouse at 25 mg/kg, po measured upto 24 hrs by LC-MS/MS analysis; assay type: ADME, organism-based; details: in vivo
[7] = AUC (0 to infinity) in CB.17 SCID mouse xenografted with human TMD8 cells at 25 mg/kg, po measured upto 24 hrs by LC-MS/MS analysis; assay type: ADME, organism-based; set-up: time < 24 hrs, dose 25 mg/kg, route po; details: in vivo
[8] = AUC (0 to infinity) in ICR mouse at 25 mg/kg, po measured upto 24 hrs by LC-MS/MS analysis; assay type: ADME, organism-based; set-up: time < 24 hrs, dose 25 mg/kg, route po; details: in vivo
NCI-H460 = assay: Antiproliferative activity against human NCI-H460 cells incubated for 72 hrs by luminescence assay; assay type: functional, cell-based; details: NCI-H460, 72 h
[9] = AUC (0 to infinity) in CB.17 SCID mouse xenografted with human TMD8 cells at 100 mg/kg, po measured upto 24 hrs by LC-MS/MS analysis; assay type: ADME, organism-based; set-up: time < 24 hrs, dose 100 mg/kg, route po; details: in vivo
MDA-MB-231 = assay: Antiproliferative activity against human MDA-MB-231 cells assessed as remaining cell activity at 2 uM incubated for 72 hrs by luminescence assay relative to control; assay type: functional
TMD8 [10] = assay: Antiproliferative activity against human TMD8 cells assessed as remaining cell activity at 2 uM incubated for 72 hrs by luminescence assay relative to control; assay type: functional
786-0 = assay: Antiproliferative activity against human 786-O cells incubated for 72 hrs by luminescence assay; assay type: functional, cell-based; details: 786-0, 72 h
[11] = Aqueous solubility of the compound; assay type: physicochemical; details: aqueous medium
[12] = Oral bioavailability in ICR mouse at 25 mg/kg measured upto 24 hrs by LC-MS/MS analysis; assay type: ADME, organism-based; details: in vivo
HCT-116 = assay: Antiproliferative activity against human HCT-116 cells assessed as remaining cell activity at 2 uM incubated for 72 hrs by luminescence assay relative to control; assay type: functional
[13] = Metabolic stability in human liver microsomes assessed as half life measured for 75 to 130 mins by LC-MS/MS analysis; assay type: ADME, Microsome; details: liver microsomes, time 75-130 min
[14] = Metabolic stability in monkey liver microsomes assessed as half life measured for 75 to 130 mins by LC-MS/MS analysis; assay type: ADME, Macaca fascicularis, Microsome; details: cynomolgus monkey, time 75-130 min
Histone deacetylase 2 = Histone deacetylase 2 (Homo sapiens, UniProt Q92769); assay: Inhibition of HDAC2 (unknown origin) using RHKK(Ac)AMC fluorogenic peptide as substrate preincubated for 10 mins followed by substrate addition for 1 hr in presence of ATP by fluoroscence based assay
Sequence of Histone deacetylase 2 (Q92769 whole entry): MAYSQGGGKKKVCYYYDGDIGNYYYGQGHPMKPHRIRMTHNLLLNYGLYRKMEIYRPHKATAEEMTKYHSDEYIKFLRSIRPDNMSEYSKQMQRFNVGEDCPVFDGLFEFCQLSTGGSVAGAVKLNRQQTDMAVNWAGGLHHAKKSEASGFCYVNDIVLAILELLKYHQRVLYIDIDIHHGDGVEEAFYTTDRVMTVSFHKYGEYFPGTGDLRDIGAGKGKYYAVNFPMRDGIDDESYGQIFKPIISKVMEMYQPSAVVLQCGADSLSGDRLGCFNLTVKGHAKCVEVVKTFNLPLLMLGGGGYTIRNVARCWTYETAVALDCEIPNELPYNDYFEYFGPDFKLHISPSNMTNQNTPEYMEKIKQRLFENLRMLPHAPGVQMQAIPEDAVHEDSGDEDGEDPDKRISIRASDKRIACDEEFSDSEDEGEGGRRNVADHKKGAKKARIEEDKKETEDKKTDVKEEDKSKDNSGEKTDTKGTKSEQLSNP

TMD8 [15] = assay: Antiproliferative activity against human TMD8 cells incubated for 72 hrs by luminescence assay; assay type: functional, cell-based; details: TMD8, 72 h
SK-OV-3 = assay: Antiproliferative activity against human SK-OV-3 cells incubated for 72 hrs by luminescence assay; assay type: functional, cell-based; details: SK-OV-3, 72 h
NCI-H441 = assay: Antiproliferative activity against human NCI-H441 cells incubated for 72 hrs by luminescence assay; assay type: functional, cell-based; details: NCI-H441, 72 h
[16] = Metabolic stability in dog liver microsomes assessed as intrinsic clearance measured for 75 to 130 mins by LC-MS/MS analysis; assay type: ADME, Canis lupus familiaris, Microsome; details: time 75-130 min, read-out: CLH
TMD8 [17] = assay: Induction of apoptosis in human TMD8 cells assessed as early apoptotic cells at 1 uM incubated for 24 hrs by Annexin V-FITC/PI staining based flow cytometric analysis (reference value: 0.24%); assay type: functional
[18] = MRT(0 to infinity) in CB.17 SCID mouse xenografted with human TMD8 cells at 100 mg/kg, po measured upto 24 hrs by LC-MS/MS analysis; assay type: ADME, organism-based; details: in vivo
[19] = MRT (0 to t) in CB.17 SCID mouse xenografted with human TMD8 cells at 25 mg/kg, po measured upto 24 hrs by LC-MS/MS analysis; assay type: ADME, organism-based; details: in vivo
SU-DHL-2 = assay: Antiproliferative activity against human SUDHL2 cells incubated for 72 hrs by luminescence assay; assay type: functional, cell-based; details: SU-DHL-2, 72 h
TMD8 [20] = assay: Induction of apoptosis in human TMD8 cells assessed as viable cells at 4 uM incubated for 24 hrs by Annexin V-FITC/PI staining based flow cytometric analysis (reference value: 96.4%); assay type: functional; details: read-out: Activity
[21] = AUC (0 to t) in CB.17 SCID mouse xenografted with human TMD8 cells at 50 mg/kg, po measured upto 24 hrs by LC-MS/MS analysis; assay type: ADME, organism-based; set-up: time < 24 hrs, dose 50 mg/kg, route po; details: in vivo

Q: With Nc1ccccc1NC(=O)c1ccc(CN2CCC/C(=C\c3ccccn3)C2=O)cc1 as the compound, how does the pIC50 (HT-29) read?
A: Its pIC50 is 5.62.

Q: What about the MRT inf [1] of the same compound?
A: The MRT inf was 0.805 h.

Q: And the pIC50 (Histone deacetylase 8)?
A: Its pIC50 is < 5.00.

Q: What about the pIC50 (Histone deacetylase 3) of the same compound?
A: Its pIC50 is 6.35.

Q: What about the AUC(0-inf) [2] of the same compound?
A: The AUC(0-inf) was 1040 ng·h/mL.

Q: What about the AUC(0-t) at 24 h [3] of the same compound?
A: Its AUC(0-t) at 24 h is 1220 ng·h/mL.

Q: And the pIC50 (COLO-678)?
A: The pIC50 was 5.10.

Q: What about the pIC50 (HuT78) of the same compound?
A: The pIC50 was 6.10.

Q: What about the microsomal CLint [4] of the same compound?
A: Its microsomal CLint is 1.7 µL/min/mg.

Q: And the pIC50 (Rec1)?
A: The pIC50 was 6.48.

Q: And the Activity (TMD8 [5])?
A: The Activity was 10.3%.

Q: And the half-life [6]?
A: Its half-life is 4.4 h.

Q: And the AUC(0-inf) [7]?
A: The AUC(0-inf) was 1230 ng·h/mL.

Q: What about the AUC(0-inf) [8] of the same compound?
A: Its AUC(0-inf) is 5180 ng·h/mL.

Q: What about the pIC50 (NCI-H460) of the same compound?
A: Its pIC50 is 5.80.

Q: And the AUC(0-inf) [9]?
A: The AUC(0-inf) was 9770 ng·h/mL.

Q: And the Activity (MDA-MB-231)?
A: The Activity was 64.94%.

Q: And the Activity (TMD8 [10])?
A: Its Activity is 2.32%.

Q: And the pIC50 (786-0)?
A: The pIC50 was 6.22.

Q: What about the solubility [11] of the same compound?
A: Its solubility is 5 ng/mL (≈ 0.0121 µM).

Q: What about the bioavailability [12] of the same compound?
A: The bioavailability was 39.9%.

Q: And the Activity (HCT-116)?
A: The Activity was 44.01%.

Q: And the half-life [13]?
A: The half-life was 13.3 h.

Q: And the half-life [14]?
A: Its half-life is 1.63 h.

Q: And the pIC50 (Histone deacetylase 2)?
A: Its pIC50 is 6.77.

Q: What about the pIC50 (TMD8 [15]) of the same compound?
A: Its pIC50 is 6.51.

Q: What about the pIC50 (SK-OV-3) of the same compound?
A: Its pIC50 is 5.50.

Q: And the pIC50 (NCI-H441)?
A: The pIC50 was 5.58.

Q: And the microsomal CLint [16]?
A: The microsomal CLint was 1.32 µL/min/mg.

Q: And the Activity (TMD8 [17])?
A: The Activity was 1.03%.

Q: What about the MRT inf [18] of the same compound?
A: Its MRT inf is 1.51 h.

Q: What about the MRT last at 24 h [19] of the same compound?
A: The MRT last at 24 h was 0.75 h.

Q: What about the pIC50 (SU-DHL-2) of the same compound?
A: Its pIC50 is 6.29.

Q: And the viability at 4 µM (TMD8 [20])?
A: Its viability at 4 µM is 57.4%.

Q: What about the AUC(0-t) at 24 h [21] of the same compound?
A: The AUC(0-t) at 24 h was 9710 ng·h/mL.
